What was measured:
CDK2/cyclin A = target: T1, CDK2/cyclin A (Homo sapiens, UniProt P24941); test: Kinase activity assay, CDK2A; type: biochemical; conditions: 10 μM, 1% DMSO, 15 μM ATP; residual activity
T1 construct: made in house
Description: (§1) Buffer A: 10 mM MgCl2, 1 mM EGTA, 1 mM DTT, 25 mM Tris-HCl pH 7.5, 50 μg heparin/ml. Buffer C: 60 mM β-glycerophosphate, 15 mM p-nitrophenylphosphate, 25 mM Mops (pH 7.2), 5 mM EGTA, 15 mM MgCl2, 1 mM DTT, 1 mM sodium vanadate, 1 mM phenyl phosphate.
(§2) Kinase activities were assayed in Buffer A or C, at 30° C., at a final ATP concentration of 15 μM. Blank values were subtracted and activities expressed in % of the maximal activity, i.e. in the absence of inhibitors. Controls were performed with appropriate dilutions of DMSO.
(§3) CDK1/cyclin B (M phase starfish oocytes, native), CDK2/cyclin A, CDK2/cyclin E, CDK5/p25 and CDK7/cyclin H (human, recombinant) were prepared as previously described (Leclerc et al., 2001, J. Biol. Chem. 2001, 276, 251-260; Bach et al., 2005, J Biol Chem 280: 31208-31219). Their kinase activity was assayed in buffer C, with 1 mg histone H1/ml, in the presence of 15 μM [gamma-^33P] ATP (3,000 Ci/mmol; 10 mCi/ml) in a final volume of 30 μl. After 30 min incubation at 30° C., 25 μl aliquots of supernatant were spotted onto 2.5×3 cm pieces of Whatman P81 phosphocellulose paper, and, 20 sec later, the filters were washed five times (for at least 5 min each time) in a solution of 10 ml phosphoric acid/liter of water. The wet filters were counted in the presence of 1 ml ACS (Amersham) scintillation fluid.

CK1 = test: Kinase activity assay, CK1; type: biochemical, porcine; conditions: 10 μM, 1% DMSO, 15 μM ATP; residual activity
Description: as §1, §2
CK1 (porcine brain, native) was assayed as described for CDK1 but using the CK1-specific peptide substrate […]pSAYSITA (Seq. ID NO 2) (Reinhardt et al., 2007, Protein Expr. & Purif. 54, 101-109), obtained from Millegen (Labege, France).

VM48 melanoma cells = test: MTT colorimetric assay, overall cell growth, VM48; type: cell-based, human; conditions: Homo sapiens; MTT, 72 hours of incubation; read-out: In Vitro IC50 Growth Inhibitory Values, VM48
pfGSK3 = pfGSK3 (Plasmodium falciparum, UniProt O77344); test: Kinase activity assay, pfGSK3; type: biochemical; conditions: 10 μM, 1% DMSO, 15 μM ATP; residual activity
Description: as §1, §2

CDK5/p25 = target: T2, CDK5/p25 (Homo sapiens, UniProt Q00535); test: Kinase activity assay, CDK5; type: biochemical; conditions: 10 μM, 1% DMSO, 15 μM ATP; residual activity
T2 construct: made in house
Description: as §1, §2, §3

VM21 melanoma cells = test: MTT colorimetric assay, overall cell growth, VM21; type: cell-based, human; conditions: Homo sapiens; MTT, 72 hours of incubation; read-out: In Vitro IC50 Growth Inhibitory Values, VM21
Method in brief: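 Cells were seeded, left 24 h at 37 °C, then exposed to compound at molar concentrations from 10^-8 to 10^-4 M for 72 h at 37 °C, in sestuplicate. Mean OD gave % living cells versus untreated control.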

U373-MG glioma cell line = test: Cellular imaging (quantitative videomicroscopy), global growth ratio, U373; type: cell-based; conditions: Homo sapiens, 50 μM, 72 h, read-out: Global Grow Ratio Treated/Ct (GGR T/Ct) determined by Video Quantitative microscopy, U373
From the text: (§4) As the MTT test is based on the mitochondria functions, we also investigated the effects of the di- and tri-vanilloyl derivatives according to the invention on cell proliferation, migration and morphology by means of a cellular imaging approach (Debeir et al., Cytometry 60:29-40, 2004; Debeir et al., IEEE Trans Med Imaging 24:697-711, 2005) either in the human U373-MG glioma cell line, which is apoptosis-resistant but autophagy-sensitive (Lefranc F et al., Neurosurgery 2008) and in the human A549 non-small-cell-lung cancer cell line, which is apoptosis-resistant and autophagy-resistant (Mijatovic T et al., Neoplasia 2006, May; 8(5):402-12).
(§5) Investigations have also been performed in human normal fibroblasts (WS1 and WI38—see Tables 4 and 5). Cellular imaging relied on the use of computer-assisted phase-contrast microscopy making possible to film the behaviour of living cells in culture dishes for several days.
(§6) Cells were seeded in a 25-cm^2 flask at a low density, treated or not with the vanilloyl-esters invention (at a concentration of 50 μM) and filmed thereafter for a period of 72 h. The experiment was conducted in quadruplicates (in duplicates for DLT-95 compounds).
(§7) The behaviour of the cells, in terms of morphology, growth and death were thus investigated. The effect on the overall growth was measured by counting the number of cells on the first (0 h) and the last image (72 h) of each film. The global growth ratio (GGR) was then deduced by dividing the number of cells on the last image by the number of cells on the first image. The ratio GGRtreated cells/GGRcontrol cells, was further calculated thereby obtaining a value that describes the effect of compounds of the present invention on the overall cell growth. The methodology is fully described and validated in Debeir et al., 2008, Exp Cell Res 314:2985-2998 and Mathieu et al., 2009, J Cell Mol Med, Feb. 20, 2009.
(§8) Illustrative pictures (time=0 h and 72 h) of glioblastoma and normal fibroblast cell line left untreated or treated with poly-vanillic compounds according to the invention (50 μM) are provided in FIG. 1 (U373 glioblastoma) and FIG. 2 (normal fibroblasts). The GGR parameter analyses confirmed the marked impairment of cell growth in both cancer cell lines of the poly-vanillic compounds according to the invention (Table 5).

DYRK1A = DYRK1A (Rattus norvegicus, UniProt Q63470); test: Kinase activity assay, DYRK1A (GST fusion, myelin basic protein substrate); type: biochemical
Description: as §1, §2
DYRK1A (rat, recombinant, expressed in E. coli as a GST fusion protein) was purified by affinity chromatography on glutathione-agarose and assayed as described for CDK1/cyclin B using myelin basic protein (1 mg/ml) as a substrate.

GSK-3 = test: Kinase activity assay, GSK3; type: biochemical, porcine; conditions: 10 μM, 1% DMSO, 15 μM ATP; residual activity
Description: as §1, §2
GSK-3 (porcine brain, native) was assayed, as described for CDK1 but in Buffer A and using a GSK-3 specific substrate (GS-1: […]pEDEEE) (Seq. ID NO 1) (pS stands for phosphorylated serine) (Primot et al., 2000, Protein Expr. & Purif. 20 (3), 394-404). GS-1 was synthesized by Millegen (Labege, France).

[1] = test system: A549 non-small-cell-lung cancer cell line; test: Cellular imaging (quantitative videomicroscopy), global growth ratio, A549; type: cell-based; conditions: Homo sapiens, 72 h, read-out: Global Grow Ratio Treated/Ct (GGR T/Ct) determined by Video Quantitative microscopy, A549
From the text: as §4, §5, §6, §7, §8

Erk2 = Erk2 (Rattus norvegicus, UniProt P63086); test: Kinase activity assay, Erk2; type: biochemical; conditions: 10 μM, 1% DMSO, 15 μM ATP; residual activity
Description: as §1, §2
Erk2 (rat, recombinant) was assayed as described for CDK1 but using the specific substrate Ets1 (amino acids 1-138) in buffer A.

WI38 normal fibroblasts = test: Cellular imaging (quantitative videomicroscopy), global growth ratio, WI38; type: cell-based, human; conditions: 50 μM, 72 h
From the text: as §4
(§9) Investigations have also been performed in human normal fibroblasts (WS1 and WI38—see Tables 4 and 5). Cellular imaging relied on the use of computer-assisted phase-contrast microscopy making possible to film the behaviour of living cells in culture dishes for several days. […]
(§10) The behaviour of the cells, in terms of morphology, growth and death were thus investigated. The effect on the overall growth was measured by counting the number of cells on the first (0 h) and the last image (72 h) of each film. […] The ratio GGRtreated cells/GGRcontrol cells, was further calculated thereby obtaining a value that describes the effect of compounds of the present invention on the overall cell growth. […]

[2] = test system: cancer cells versus normal fibroblasts; test: Anti-proliferative, anti-migratory and anti-kinase effects, cancer cells versus normal fibroblasts; type: cell-based, human; conditions: anti-proliferative
From the text: (§11) The compounds of the invention were subsequently evaluated for their 1) anti-proliferative effect (by means of the colorimetric MTT assay), 2) pro-autophagic and pro-apoptotic effect (by means of flow cytometry analyses), and 3) anti-migratory effect (by means of quantitative videomicroscopy), in the following human cancer cell-lines: a) U373, T98G and Hs683 glioblastoma cells, b) VM21 and VM48 melanoma cells, c) PC-3 prostate cancer cells, d) MCF-7 breast cancer cells, e) LoVo colon cancer cells, f) OE21 oesophageal cancer cells, and g) A549 NSCLC cancer cells, as well as in human WS1 and WI38 normal fibroblasts (i.e. non-cancer cells).
The best current hits, DLT12 and DLT4, display anti-proliferative, anti-migratory effects and anti-kinase effects which are ˜10 times more pronounced in cancer cells than in normal fibroblasts. […] FIG. 1 illustrates the data obtained with respect to the human U373 glioblastoma model, while FIG. 2 illustrates the data obtained in human normal fibroblasts. […] DLT-95 and its derivatives DLT-95-F and DLT-95-Cl were also shown to have a significant effect on the proliferation 7 different human cancer cell-lines.

cancer cell lines = test: Flow cytometry analyses of pro-autophagic and pro-apoptotic effects; type: cell-based, human; conditions: cancer cell lines studied
From the text: as §11

WS1 normal fibroblasts = test: Cellular imaging (quantitative videomicroscopy), global growth ratio, WS1; type: cell-based, human; conditions: 50 μM, 72 h
From the text: as §4, §9, §10

T2 sequence (Q00535 whole entry): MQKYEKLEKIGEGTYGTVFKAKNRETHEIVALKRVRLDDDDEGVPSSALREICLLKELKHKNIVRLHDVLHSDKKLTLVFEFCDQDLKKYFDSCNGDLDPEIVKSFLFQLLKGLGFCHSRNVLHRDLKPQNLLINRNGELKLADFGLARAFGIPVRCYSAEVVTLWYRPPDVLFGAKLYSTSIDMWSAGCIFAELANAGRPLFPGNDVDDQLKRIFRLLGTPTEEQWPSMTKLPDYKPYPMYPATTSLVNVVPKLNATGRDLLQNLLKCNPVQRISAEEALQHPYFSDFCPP
T2 sequence (Q15078 99-307 partner limits assumed): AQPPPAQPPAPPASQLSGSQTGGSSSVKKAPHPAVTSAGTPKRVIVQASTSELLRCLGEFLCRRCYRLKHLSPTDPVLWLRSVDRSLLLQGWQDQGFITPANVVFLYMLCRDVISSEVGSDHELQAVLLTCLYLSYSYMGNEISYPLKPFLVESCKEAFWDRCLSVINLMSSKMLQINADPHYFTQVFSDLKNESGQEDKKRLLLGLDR
Sequence of Erk2 (P63086 whole entry): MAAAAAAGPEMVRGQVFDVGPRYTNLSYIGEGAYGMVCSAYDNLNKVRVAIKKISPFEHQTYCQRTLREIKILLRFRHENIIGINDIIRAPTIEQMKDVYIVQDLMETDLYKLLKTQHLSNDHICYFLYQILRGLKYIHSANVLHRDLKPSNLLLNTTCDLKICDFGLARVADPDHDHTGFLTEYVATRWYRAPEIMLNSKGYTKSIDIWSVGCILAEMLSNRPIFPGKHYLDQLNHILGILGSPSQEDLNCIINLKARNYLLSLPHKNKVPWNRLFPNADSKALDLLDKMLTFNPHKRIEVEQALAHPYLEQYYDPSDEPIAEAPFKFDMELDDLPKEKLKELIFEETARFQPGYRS
Sequence of pfGSK3 (O77344 1-440): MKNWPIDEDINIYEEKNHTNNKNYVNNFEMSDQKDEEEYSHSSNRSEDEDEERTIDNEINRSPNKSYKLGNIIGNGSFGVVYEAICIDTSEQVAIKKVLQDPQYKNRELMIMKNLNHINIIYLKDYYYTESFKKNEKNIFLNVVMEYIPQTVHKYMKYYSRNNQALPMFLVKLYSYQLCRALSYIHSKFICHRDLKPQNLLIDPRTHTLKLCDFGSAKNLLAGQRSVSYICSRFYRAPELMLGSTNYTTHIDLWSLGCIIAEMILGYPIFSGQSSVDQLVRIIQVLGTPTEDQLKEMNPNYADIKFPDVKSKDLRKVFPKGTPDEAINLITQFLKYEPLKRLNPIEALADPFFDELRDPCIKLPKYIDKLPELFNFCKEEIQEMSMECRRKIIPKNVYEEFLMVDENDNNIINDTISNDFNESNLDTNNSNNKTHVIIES

Compound | % ENZYMATIC ACTIVITY, CDK2A (CDK2/cyclin A) [%] | % ENZYMATIC ACTIVITY, Ckone (CK1) [%] | IC50 (VM48 melanoma cells) [µM] | % ENZYMATIC ACTIVITY, pfGSK3 (pfGSK3) [%] | % ENZYMATIC ACTIVITY, CDK5 (CDK5/p25) [%] | IC50 (VM21 melanoma cells) [µM] | activity at 50 µM (U373-MG glioma cell line) [%] | inhibition at 10 µM (DYRK1A) [%] | % ENZYMATIC ACTIVITY, Dyrk1A (DYRK1A; 10 μM, 1% DMSO, 15 μM ATP, residual activity) [%] | % ENZYMATIC ACTIVITY, GSK3 (GSK-3) [%] | activity at 50 µM [1] [%] | % ENZYMATIC ACTIVITY, Erk2 (Erk2) [%] | Global Grow Ratio Treated/Ct (GGR T/Ct) determined by Video Quantitative microscopy, WI38 (WI38 normal fibroblasts) | effects more pronounced in cancer cells than in normal fibroblasts [2] [times] | pro-autophagic or pro-apoptotic effects (cancer cell lines) | Global Grow Ratio Treated/Ct (GGR T/Ct) determined by Video Quantitative microscopy, WS1 (WS1 normal fibroblasts)
COc1cc(C(=O)OC2CCCC(OC(=O)c3ccc(O)c(OC)c3)C2)ccc1O (mixture of isomers) [DLT5, cis/trans-cyclohexane-1,3-diyl bis-(4-hydroxy-3-methoxybenzoate)] | 100 | 73 | 47 | 89 | 95 | 47 | 20 | 26 | 74 | 81 | 10 | 92 | – | – | – | –
COc1cc(C(=O)O[C@@H]2CCCC[C@H]2OC(=O)c2ccc(O)c(OC)c2)ccc1O (racemic) [DLT4, trans-cyclohexane-1,2-diyl bis-(4-hydroxy-3-methoxybenzoate)] | – | – | – | – | – | – | 20 | – | – | – | 20 | – | 0.9 | ~10 | does not induce pro-autophagic or pro-apoptotic effects | 1.0

Source: US20110280940A1, “Di-Vanilloyl And Tri-Vanilloyl Derivatives For Use In Anti-Cancer Therapy” (priority 2008, published 2011)
